From patent US12077503B2, “Substituted cyclic amides and their use as herbicides” (FMC CORPORATION, priority 2015, dated 2024)

What was measured:
Assay in all cases: Test C preemergence
Format in all cases: in vivo
Conditions in all cases: scale 0 to 100, 0 no effect, 100 complete control
[1] = tested on: ryegrass, Italian (Italian ryegrass, Lolium multiflorum)
Procedure, shortened: (§1)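 Visual rating, 0–100 scale (0 = no effect, 100 = complete control) versus controls, 13–15 d after treatment. Compounds in non-phytotoxic solvent plus surfactant; applied preemergence to seeds in loam/sand soil or postemergence to 1- to 4-leaf plants (2–18 cm) in peat/vermiculite medium; greenhouse-held.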

[2] = tested on: wheat (winter wheat, Triticum aestivum)
Procedure, shortened: as §1

[3] = tested on: ragweed (common ragweed, Ambrosia elatior)
Procedure, shortened: as §1

[4] = tested on: velvetleaf (Abutilon theophrasti)
Procedure, shortened: as §1

[5] = tested on: lambsquarters (Chenopodium album)
Procedure, shortened: as §1

[6] = tested on: Galium (catchweed bedstraw, Galium aparine)
Procedure, shortened: as §1

soybean (Glycine max) = tested on: soybean (Glycine max)
Procedure, shortened: as §1

[7] = tested on: barnyardgrass (Echinochloa crus-galli)
Procedure, shortened: as §1

[8] = tested on: pigweed (Amaranthus retroflexus)
Procedure, shortened: as §1

[9] = tested on: morningglory (Ipomoea coccinea)
Procedure, shortened: as §1

[10] = tested on: nutsedge, yellow (yellow nutsedge, Cyperus esculentus)
Procedure, shortened: as §1

corn (Zea mays) = tested on: corn (Zea mays)
Procedure, shortened: as §1

[11] = tested on: foxtail, giant (giant foxtail, Setaria faberii)
Procedure, shortened: as §1

[12] = tested on: oilseed rape (Brassica napus)
Procedure, shortened: as §1

[13] = tested on: crabgrass, large (large crabgrass, Digitaria sanguinalis)
Procedure, shortened: as §1

[14] = tested on: waterhemp (common waterhemp, Amaranthus rudis)
Procedure, shortened: as §1

[15] = tested on: johnsongrass (Sorghum halepense)
Procedure, shortened: as §1

[16] = tested on: blackgrass (Alopecurus myosuroides)
Procedure, shortened: as §1

O=C1NCC(c2ccc(Br)cc2)C1C(=O)Nc1cccc(F)c1F (stereo not shown) [Compound 446]
10: Plant response rating, Velvetleaf ([4]; 125 g ai/ha) | Plant response rating, Soybean (soybean (Glycine max); 125 g ai/ha) | Plant response rating, Corn (corn (Zea mays); 250 g ai/ha)
55: Plant response rating, Lambsquarters ([5]; 125 g ai/ha) | Plant response rating, Blackgrass ([16]; 250 g ai/ha)
60: Plant response rating, Lambsquarters ([5]; 31 g ai/ha)
25: Plant response rating, Ragweed ([3]; 31 g ai/ha) | Plant response rating, Soybean (soybean (Glycine max); 250 g ai/ha)
98: Plant response rating, Waterhemp ([14]; 250 g ai/ha)
30: Plant response rating, Wheat ([2]; 250 g ai/ha) | Plant response rating, Velvetleaf ([4]; 250 g ai/ha)
50: Plant response rating, Lambsquarters ([5]; 62 g ai/ha) | Plant response rating, Pigweed ([8]; 31 g ai/ha) | Plant response rating, Johnsongrass ([15]; 125 g ai/ha) | Plant response rating, Blackgrass ([16]; 125 g ai/ha)
40: Plant response rating, Ragweed ([3]; 62 g ai/ha) | Plant response rating, Johnsongrass ([15]; 62 g ai/ha)
20: Plant response rating, Soybean (soybean (Glycine max); 62 g ai/ha) | Plant response rating, Johnsongrass ([15]; 31 g ai/ha)
45: Plant response rating, Ryegrass, Italian ([1]; 250 g ai/ha)
65: Plant response rating, Johnsongrass ([15]; 250 g ai/ha)
90: Plant response rating, Galium ([6]; 62 g ai/ha) | Plant response rating, Galium ([6]; 125 g ai/ha) | Plant response rating, Barnyardgrass ([7]; 31 g ai/ha) | Plant response rating, Barnyardgrass ([7]; 62 g ai/ha) | Plant response rating, Barnyardgrass ([7]; 125 g ai/ha) | Plant response rating, Foxtail, Giant ([11]; 62 g ai/ha) | Plant response rating, Foxtail, Giant ([11]; 125 g ai/ha) | Plant response rating, Oilseed Rape ([12]; 125 g ai/ha)
0: Plant response rating, Ryegrass, Italian ([1]; 62 g ai/ha) | Plant response rating, Ryegrass, Italian ([1]; 125 g ai/ha) | Plant response rating, Wheat ([2]; 62 g ai/ha) | Plant response rating, Wheat ([2]; 125 g ai/ha) | Plant response rating, Velvetleaf ([4]; 62 g ai/ha) | Plant response rating, Galium ([6]; 31 g ai/ha) | Plant response rating, Morningglory ([9]; 31 g ai/ha) | Plant response rating, Morningglory ([9]; 62 g ai/ha) | Plant response rating, Morningglory ([9]; 125 g ai/ha) | Plant response rating, Morningglory ([9]; 250 g ai/ha) | Plant response rating, Nutsedge, Yellow ([10]; 31 g ai/ha) | Plant response rating, Nutsedge, Yellow ([10]; 62 g ai/ha) | Plant response rating, Nutsedge, Yellow ([10]; 125 g ai/ha) | Plant response rating, Nutsedge, Yellow ([10]; 250 g ai/ha) | Plant response rating, Corn (corn (Zea mays); 31 g ai/ha) | Plant response rating, Corn (corn (Zea mays); 62 g ai/ha) | Plant response rating, Corn (corn (Zea mays); 125 g ai/ha) | Plant response rating, Oilseed Rape ([12]; 31 g ai/ha) | Plant response rating, Blackgrass ([16]; 31 g ai/ha) | Plant response rating, Blackgrass ([16]; 62 g ai/ha)
80: Plant response rating, Pigweed ([8]; 125 g ai/ha) | Plant response rating, Waterhemp ([14]; 125 g ai/ha)
100: Plant response rating, Crabgrass, Large ([13]; 31 g ai/ha) | Plant response rating, Crabgrass, Large ([13]; 62 g ai/ha) | Plant response rating, Crabgrass, Large ([13]; 125 g ai/ha) | Plant response rating, Crabgrass, Large ([13]; 250 g ai/ha) | Plant response rating, Waterhemp ([14]; 62 g ai/ha)
75: Plant response rating, Ragweed ([3]; 125 g ai/ha) | Plant response rating, Pigweed ([8]; 62 g ai/ha)
95: Plant response rating, Lambsquarters ([5]; 250 g ai/ha) | Plant response rating, Galium ([6]; 250 g ai/ha) | Plant response rating, Barnyardgrass ([7]; 250 g ai/ha) | Plant response rating, Foxtail, Giant ([11]; 250 g ai/ha) | Plant response rating, Oilseed Rape ([12]; 250 g ai/ha)
85: Plant response rating, Ragweed ([3]; 250 g ai/ha) | Plant response rating, Pigweed ([8]; 250 g ai/ha) | Plant response rating, Foxtail, Giant ([11]; 31 g ai/ha) | Plant response rating, Oilseed Rape ([12]; 62 g ai/ha)
